Literature values as cited in the CATMoS acute toxicity set (Mansouri et al. 2021).
“And” between values parts separate entries of the source, which are not always exact repeats. Identical values can stand only once.

Test: rat acute oral toxicity
Settings: in vivo

SMILES	LD50
CCC(=O)OCCc1ccccc1	4000 mg/kg
NCC(O)c1ccc(O)cc1 (centres undefined)	1240 mg/kg and 1090 mg/kg
CCCOC(=O)C1c2cc3c(cc2CC(C)C1C(=O)OCCC)OCO3 (centres undefined)	1500 mg/kg
Cc1c(Cl)cccc1Nc1ncccc1C(=O)O	335 mg/kg
CCC(CC)(C(=O)O)c1cccc2ccccc12	1080 mg/kg
C[C@@H]1C[C@H]2[C@@H]3C[C@H](F)C4=CC(=O)C=C[C@]4(C)[C@H]3[C@@H](O)C[C@]2(C)[C@H]1C(=O)CO	245 mg/kg
CCCCCCC(=O)OCCN1CCN(CCCN2c3ccccc3Sc3ccc(C(F)(F)F)cc32)CC1	230 mg/kg
FC(Cl)(C(Cl)(Cl)Cl)C(Cl)(Cl)Cl	500 mg/kg
NC(=O)N1CCC(c2ccccc2)CC1	790 mg/kg
O=C1CCCCCCCCCCCN1	2330 mg/kg
CC(CCc1ccc(O)cc1)NCCc1ccc(O)c(O)c1 (centres undefined)	2300 mg/kg
CN(SSC(C)(C)C)C(=O)ON=C1SCCS1	5.6 mg/kg
OCC[N+](CCO)(CCO)CCO	2250 mg/kg
CCC(CC)C(=O)O	2200 mg/kg
CCOC(C1=NCC(C)(CC)CN1)c1ccccc1 (centres undefined)	220 mg/kg
C=CCOC(=O)/C=C\C(=O)OCC=C	300 mg/kg
CC(Cc1ccccc1)NN (centres undefined)	34 mg/kg
O=NN1CCOCC1	282 mg/kg
c1ccc2c(c1)Oc1ccccc1O2	1220 mg/kg
CC=C(CC)C(=O)NC(N)=O	2500 mg/kg
N#CC=CCCC#N	380 mg/kg
O=C(Cl)c1cccc(C(=O)Cl)c1	2200 mg/kg
O=C(OCCOCCN1CCCCC1)N1c2ccccc2Sc2cccnc21	530 mg/kg
CCOCCOCC(C)O (centres undefined)	9330 mg/kg
[SiH3]CCCCC(Cl)(Cl)Cl	2340 mg/kg

SMILES	LD50
CC(C)=CC1C(C(=O)OC(C#N)c2cccc(Oc3ccccc3)c2)C1(C)C (centres undefined)	318 mg/kg
CCOP(=S)(OCC)OP(=S)(OCC)OCC	5 mg/kg
NCCCCCCNCCCCCCN	450 mg/kg
Cc1ccccc1OCC(O)CN1CC=CCC1 (centres undefined)	340 mg/kg
CNC(=O)c1cc(-c2ccccc2)ccc1OCCO	2700 mg/kg
CCOC(C1=NCC(C)(C)CN1)c1cccc2ccccc12 (centres undefined)	55 mg/kg
CCOP(=S)(OCC)SCn1c(=O)oc2ccccc21	81 mg/kg
OC(CCl)COCCCCCOCC(O)CCl (centres undefined)	2250 mg/kg
CCN(CC)c1ccc(N=O)c(O)c1	315 mg/kg
COc1ccc(C(=O)Nc2ccccc2CCC2CCCCN2C)cc1 (centres undefined)	57 mg/kg
CCC(C)C(=O)OC1C(OC(C)=O)c2c(ccc3ccc(=O)oc23)OC1(C)C (centres undefined)	1210 mg/kg
OC(CCl)CNCCNCC(O)CCl (centres undefined)	1000 mg/kg
CCCCCC/C=C/C1CC(=O)OC1=O (centres undefined)	1100 mg/kg
CC(C)NC(=S)NC(C)C	450 mg/kg
CNC(=S)N(C)C	316 mg/kg
C=CC(=O)OCCCCCCC	4500 mg/kg
CC(=O)Nc1ccc(-c2ccc(N)cc2)cc1	1630 mg/kg
COP(=O)(OC)SC(CC(=O)OC(C)C)C(=O)OC(C)C (centres undefined)	120 mg/kg
COc1cc(CC(C)N)cc2c1OCO2 (centres undefined)	170 mg/kg
CC(=Nc1c(I)cc(I)c(C(=O)NCC(C)C(=O)O)c1I)N1CCOCC1 (centres undefined)	15000 mg/kg and 7000 mg/kg
CC(C)(C)CC(C)(C)c1ccc(OCCOS(=O)(=O)O)cc1	27000 mg/kg
CSCC(=O)N(C)C(=O)Oc1ccccc1OC(C)C	650 mg/kg
O=C(O)c1cc(N=Nc2ccc(S(=O)(=O)O)cc2)ccc1O	14000 mg/kg
O=C(O)Cc1c(Cl)ccc(Cl)c1Cl	1780 mg/kg
CN1CCC[C@@H]1CCO[C@](C)(c1ccccc1)c1ccc(Cl)cc1	3550 mg/kg

SMILES	LD50
C1COCCOCCOCCOCCO1	1410 mg/kg
CN(Sc1ccc(Cl)c(Cl)c1)C(=O)Oc1cccc2c1OC(C)(C)C2	25 mg/kg
CC(C)c1ccc2c(c1)CC[C@H]1[C@](C)(C(=O)O)CCC[C@]21C	1710 mg/kg
OC[C@H]1O[C@@H](n2cnc3c(S)ncnc32)[C@H](O)[C@@H]1O	900 mg/kg
Cn1cc(C(=O)[C@@H]2CCc3[nH]cnc3C2)c2ccccc21	1260 mg/kg
CN(C)CCC(c1ccc(Br)cc1)c1ccccn1 (centres undefined)	318 mg/kg
CCCCC(CC)COC(C[n+]1ccccc1)c1ccccc1 (centres undefined)	250 mg/kg
Cc1nc(N)sc1C(=O)Nc1ccccc1	1410 mg/kg
CCC1(C)Oc2cccc(OC(=O)NC)c2O1 (centres undefined)	25 mg/kg
CN(C)N=Nc1ccc(Cl)cc1	362 mg/kg
ClC(Cl)(Cl)Sn1cccn1	350 mg/kg
CCCCOc1c(Cl)c(Cl)c(Cl)c(Cl)c1Cl	600 mg/kg
CC(=O)NCCO	27000 mg/kg
C=CC(Cl)=C(Cl)Cl	680 mg/kg
CCCC(CCC)C(=O)O[C@H]1C[C@H]2CC[C@@H](C1)[N+]2(C)C	705 mg/kg
CN(CCC#N)CCC#N	890 mg/kg
C=CCN(C)N=O	340 mg/kg
Clc1cc(Cl)c(Cl)c(-c2cc(Cl)c(-c3cc(Cl)c(Cl)c(Cl)c3)c(Cl)c2Cl)c1	19200 mg/kg
CC[N+]1(CC)CCCO1	150 mg/kg
COC(=O)c1ccc(N=NN(C)C)cc1	52 mg/kg
CCOC(=O)C(C(=O)Cc1c(C)n(C(=O)c2ccc(Cl)cc2)c2ccc(OC)cc12)C(=O)OCC	520 mg/kg
CC(C)(C)OC(=O)CCl	380 mg/kg
CNC(=O)C(C)SCCSP(=O)(OC)OC (centres undefined)	64 mg/kg
O=C(O)c1cc(Cl)ccc1O	250 mg/kg
CCN(CC)CCOCCOC(=O)C(CC)(CC)c1ccccc1	183 mg/kg

SMILES	LD50
CCC(O)CC	1870 mg/kg
CCOP(=O)(Oc1ccc([N+](=O)[O-])cc1)SCC (centres undefined)	17.9 mg/kg
CC(C)CCC(=O)O	2050 mg/kg
CN=NNc1ccc(C)cc1	381 mg/kg
C=COCC(CC)CCCC (centres undefined)	1350 mg/kg
COC(=O)[C@H]1[C@H]2C[C@@H]3c4[nH]c5cc(OC)ccc5c4CCN3C[C@H]2C[C@H](OC)[C@@H]1OC	182 mg/kg
CC1(C)[C@H](C=C(Cl)Cl)[C@H]1C(=O)OCc1c(F)c(F)c(F)c(F)c1F	85 mg/kg
CCCCC(CC)CN(CCO)CC(CC)CCCC (centres undefined)	4920 mg/kg
c1ccc(CNc2ncnc3c2NCN3)cc1	2100 mg/kg
CC(C)COC(=O)CCc1ccco1	1950 mg/kg
CCSc1nnc(C(C)(C)C)c(=O)n1N	599 mg/kg
CCS(=O)(=O)Nc1c(C)cc(OC(=O)NC)cc1C	780 mg/kg
COC(=O)C(=O)c1ccccc1	6800 mg/kg
CCCCOc1ccc(C(CN(C)C)C(C)CC)cc1Cl (centres undefined)	1050 mg/kg
Sc1nc2ccccc2s1	100 mg/kg
N[C@@H](Cc1ccc(O)c(O)c1)C(=O)O	1780 mg/kg
CC(=O)Oc1ccc(-c2ccc(F)cc2)cc1C(=O)O	185 mg/kg
CCOC(=O)c1c[nH]c2cc(OCC3CC3)c(OCC3CC3)cc2c1=O	3000 mg/kg
CCc1c(C)[nH]c2c1C(=O)C(CN1CCOCC1)CC2 (centres undefined)	261 mg/kg
CCc1nc(N)nc(N)c1-c1ccccc1	126 mg/kg
O=[N+]([O-])c1cnc(Cl)c([N+](=O)[O-])c1	50 mg/kg
COc1cccc(CCc2ccccc2OCC(CN(C)C)OC(=O)CCC(=O)O)c1 (centres undefined)	4400 mg/kg
CC=CCCCCCCCC(=O)OC	3000 mg/kg
COc1ccc(-c2cc(N)c3c(c2O)C(=O)c2c(N)ccc(O)c2C3=O)cc1	6380 mg/kg
O=C1CCCC1	2690 mg/kg

SMILES	LD50
CC(C)c1nnc(NS(=O)(=O)c2ccc(N)cc2)s1	3940 mg/kg
C#CC(C)(O)C(O)c1ccccc1 (centres undefined)	730 mg/kg
C[C@H]1C[C@H]2[C@@H]3CCC4=CC(=O)C=C[C@]4(C)[C@@]3(F)[C@@H](O)C[C@]2(C)[C@@]1(O)C(=O)COP(=O)(O)O	1880 mg/kg
CN1CCC(=C2c3ccccc3Sc3ccccc32)CC1	1190 mg/kg and 550 mg/kg
C[C@H]1c2cccc(O)c2C(=O)C2=C(O)[C@]3(O)C(=O)C(C(N)=O)=C(O)[C@@H](N(C)C)[C@@H]3[C@@H](O)[C@@H]21	1700 mg/kg
CCCCCC(=O)NP(=O)(OC)SC (centres undefined)	25 mg/kg
CCOC(C1=NCC(CC)(CC)CN1)c1ccccc1 (centres undefined)	250 mg/kg
C=CCCCCCCCCC(=O)OC	1560 mg/kg
CCCCC(O)(Cn1cncn1)c1ccc(Cl)cc1Cl (centres undefined)	2190 mg/kg
Cc1cn(-c2cc(N)cc(C(F)(F)F)c2)cn1	50 mg/kg
CC(C)C1C=C2CC[C@H]3[C@](C)(CO)CCC[C@]3(C)[C@H]2CC1 (some centres undefined)	70000 mg/kg
CCCc1ccc2c(c1)OCO2	2260 mg/kg
NC(=S)C1CC=CCC1 (centres undefined)	50 mg/kg
CS(=O)(=O)O	6170 mg/kg
N[C@@H]1C[C@H]1c1ccc(F)c(F)c1	50 mg/kg
CCC(C)(C)N/C(N)=N/C#N	300 mg/kg
C=CCOc1ccccc1OC(=O)NC	200 mg/kg
CCCCCCCCCCCCCCCCCC(=O)Cl	7500 mg/kg
CCCCC(CC)COC(C)=O (centres undefined)	3000 mg/kg
CNC1(c2ccccc2Cl)CCCCC1=O (centres undefined)	447 mg/kg
O=C(OCC1CO1)c1ccccc1 (centres undefined)	1410 mg/kg
COC(=O)OC	13000 mg/kg
CCCCCCCCCc1ccc(OCCO)cc1	2100 mg/kg
O=[N+]([O-])c1cc2c(ccc3ccccc32)o1	439 mg/kg
CC(=O)OC(C)C[N+](C)(C)C (centres undefined)	750 mg/kg

SMILES	LD50
C/C(=C1\CCOC(=O)S1)N(C=O)Cc1cnc(C)nc1N	7600 mg/kg
COc1ccc(N)cc1OC	681 mg/kg
CCCOC(=O)COc1cccc(C(C)(C)C)c1	1800 mg/kg
Fc1ccc(Br)cc1	2700 mg/kg
CCCCN1CCCC1C(=O)Nc1c(C)cc(C)cc1C (centres undefined)	14000 mg/kg
C1CCC(CNC2=NCCS2)CC1	50 mg/kg
NC(=O)c1ccc(Cl)c(N)c1	900 mg/kg
CCS(=O)(=O)CCn1c([N+](=O)[O-])cnc1C	2710 mg/kg
[N-]=[N+]=NC1CCCCC1=NO (centres undefined)	1120 mg/kg
CCOP(=S)(OCC)SC(CBr)N1C(=O)c2ccccc2C1=O (centres undefined)	18 mg/kg
O=CC(Br)(Br)Br	100 mg/kg
CC(C)(COCC1CO1)COCC1CO1 (centres undefined)	4500 mg/kg
CCOC(=O)CN(C)N=O	4000 mg/kg
O=C(O)C1=CC(=C(c2ccc(O)c(C(=O)O)c2)c2ccc(O)c(C(=O)O)c2)C=CC1=O	9000 mg/kg
CCSC(=O)Oc1c(C(C)CC)cc([N+](=O)[O-])cc1[N+](=O)[O-] (centres undefined)	147 mg/kg
CCOP(=S)(OCC)SCC(=O)NC(C)C	8 mg/kg
CC1(C)CC2(NC(=O)N(CCCN3CCC(O)CC3)C2=O)c2cc(Cl)ccc2O1 (centres undefined)	858 mg/kg
Clc1cccc(SCc2nn[nH]n2)c1	2200 mg/kg
CC(=O)N(O)CCCCCNC(=O)CCC(=O)N(O)CCCCCNC(=O)CCC(=O)N(O)CCCCCN	17300 mg/kg
CC=CC(=O)N(CC)c1ccccc1C	1500 mg/kg
CC(C)(CNc1ccc(N=O)cc1)[N+](=O)[O-]	2730 mg/kg
NC1=NC(C(F)(F)F)(C(F)(F)F)NC1(C(F)(F)F)C(F)(F)F	19 mg/kg
CCOC(=O)CCCCCCCCC(C)c1ccc(I)cc1 (centres undefined)	2100 mg/kg
OC1(c2ccc(Cl)cc2)c2ccccc2C2=NCCN21 (centres undefined)	36.3 mg/kg
